Assay results as given in patent US8906860B2, “Methods and compositions inhibiting tumor cell proliferation” (The Board of Trustees of the University of Illinois, priority 2011, dated 2014).
Where two headings read alike, the source gives them in different places. Square brackets hold non-standard residues; d marks the D form. Ends that are not written are not given here.

Columns and labels:
[1] = test system: p53 null thymic lymphoma cells; experiment: Kidney colonization of intravenously injected p53 null thymic lymphoma cells in SCID mice; format: in vivo, mouse; conditions: 2.5 mg/kg intraperitoneal every other day, 10 injections
Protocol: These experiments were performed to determine if modifying the termini conferred any advantages on these peptides when administered to an animal. Both wild type ARF 26-44 (rrrrrrrrrKFVRSRRPRTASCALAFVN) (SEQ ID NO 10) and mutant ARF 37-44 (rrrrrrrrrSCALAFVN) (SEQ ID NO 21) peptides were synthesized by Genemed Synthesis Inc. (San Antonio, Tex.). The N-terminus of each peptide was fused with nine D-Arg(r) residues. Both wild type and mutant peptides were blocked with amidation on C-terminus and acetylation on N-terminus. For sarcoma cells, mice were treated with 5 mg/kg body weight of peptide every other day for 10 times. For lymphoma cells, mice were treated with 2.5 mg/kg body weight of peptide every other day for 10 times.
To test the therapeutic effect of the ARF-peptide on p53 null tumors in vivo, p53 null lymphoma/sarcoma cells were introduced into the circulation of SCID mice through intravenous injection. ICR SCID mice were obtained from Taconic Farms (Germantown, N.Y.). Both p53 null sarcoma and lymphoma cells were stably transduced before injection with lentivirus carrying a gene conferring luciferase expression. Specifically, cells were stably transduced with pFU-L2G luciferase construct obtained from Sanjiv Sam Gambhir (M. D., Ph.D) of Stanford University as optimized by Dr. Huiping Liu (Liu et al., Proc Natl Acad Sci USA, 107: 18115-18120). This construct enabled expression of both the bioluminescence and green fluorescence protein. eGFP positive cells were sorted by Beckman Coulter MoFlo. 3×10^6 cells were suspended in cold PBS and injected through the tail vein of SCID mice. Live animal imaging was performed using an IVIS Spectrum optical imaging machine (Caliper Life Sciences, Alameda, Calif.). […] Mice were randomized into three groups and were treated with PBS, mutant-peptide or the wild type ARF-peptide for 10 injections every other day by intraperitoneal injection. […] The mice were sacrificed and lung sections were analyzed for tumor colonies. […] For the p53 null thymic lymphoma cells, metastatic growth in kidney was observed, consistent with murine thymic lymphoma cells having a tendency to colonize kidney, liver and spleen (Aoudjit et al., 1998, Blood, 91: 623-629).

S2 cells = conditions: 24 hours
Protocol: TUNEL assay was used to measure apoptosis in S2 cells treated with WT-blocked, mutant-blocked or WT-unblocked (D-Arg)9-p19^ARF 26-44 peptides. (D-Arg)9-p19^ARF 26-44 peptide treatment of cells was performed in 8-well chamber slides for TUNEL staining. On Day 0, 20,000 cells per well were seeded in the 8-well chamber slides. On Day 1, slides were replenished with fresh media containing one of the following concentrations of either WT-blocked, mutant-blocked or WT-unblocked (D-Arg)9-p19^ARF 26-44 peptides: 10, 15, 25, 30, 40 and 70 μM for 24 hours. On Day 2, TUNEL staining was performed following the manufacture's protocol (ApopTag® Fluorescein In Situ Apoptosis Detection Kit from CHEMICON® International, S7110). The percent of apoptosis of S2 cells (±SD) was measured by counting the number of TUNEL-positive cells (green fluorescence) per 1,000 nuclei as visualized by DAPI (blue fluorescence) counterstaining. The experiment was repeated in a second experiment using the same protocol. Statistical analysis and EC50 calculation were performed using GraphPad Prism software.

[2] = test system: CMV-TETO GFP-Foxm1b U2OS clone C3 cells; experiment: Soft agar colony formation, Doxycycline induced GFP-FoxM1B U2OS clone C3 cells; format: cell-based, human; conditions: 12 μM peptide, 1 μg/ml Doxycycline, two weeks
Protocol: (§1) The T-REx™-U2OS cells were purchased from Invitrogen Life Technologies (Catalog No. R712-07). The T-REx™-U2OS cells express the Tet repressor from pCEP4/tetR that was episomally maintained in tissue culture medium containing 10% fetal calf serum and drug selection with 50 μg/ml of Hygromycin B. Tetracycline regulation in the T-REx System was based on the binding of tetracycline to the TET repressor and de-repressing of the CMV-TETO promoter controlling expression of the gene of interest (Yao et al., 1998, Hum Gene Ther 9:1939-1950). The pcDNA4-TO GFP-FoxM1B expression plasmid provided in the T-REx™ system was generated as described previously (Major et al., 2004, Mol. Cell. Biol. 24:2649-2661) and transfected T-REx™-U2OS cells with linearized pcDNA4-TO GFP-Foxm1b expression plasmid to select clonal Doxycycline inducible GFP-Foxm1b U2OS cell lines. CMV-TETO GFP-FoxM1B U2OS clones were isolated by selection for three weeks with tissue culture medium containing 50 μg/ml of Hygromycin B and 250 μg/ml of Zeocin. […] Wild type U2OS cells or CMV-TETO GFP-Foxm1b U2OS clone C3 cells were grown in medium with or without 1 μg/ml of Doxycycline for 2 days prior to either adding the (D-Arg)9-p19^ARF 26-44 peptide or left untreated. […] U2OS cell colonies that were larger than 1 mm in size were scored after two weeks of growth on the soft agar.

parental U2OS cells = experiment: Soft agar colony formation, parental U2OS cells; format: cell-based, human; conditions: 12 μM peptide, two weeks
Protocol: as §1

HCC = conditions: cited from earlier work
[3] = test system: FoxM1B transcriptional activity; experiment: FoxM1B transcriptional activity, 6xFoxM1B TATA-luciferase reporter assay in transfected U2OS cells; format: cell-based, human; conditions: 12 μM peptide, 24 hours
From the text: A 6×FoxM1B/FoxA TATA-Luciferase utilized 6 copies of the FoxM1B/FoxA binding site (TTTGTTTGTTTG; SEQ ID NO: 6) from the cdx-2 promoter region driving expression of the CMV-TATA box luciferase reporter gene as described previously (Rausa et al., 2003, Mol. Cell. Biol. 23:437-449; Samadani et al., 1996, Mol. Cell. Biol. 16:6273-6284; Ye et al., 1997, Mol. Cell Biol. 17:1626-1641).
Inhibiting Cdk1 activity with either dominant negative (DN) Cdk1 or a pharmacologically active concentration of Alsterpaullone (1 μM) caused an 80% to 90% reduction in FoxM1B transcriptional activity (FIG. 6C). […] Consistent with these findings, stimulation of Cdk1 activity by co-transfection of either CMV Cdc25B or Cdc25C phosphatases enhanced FoxM1B transcriptional activity by 3.4-fold and 1.7-fold, respectfully (FIGS. 6B and 6D). […]
Human osteosarcoma U2OS cells were maintained in DMEM supplemented with 10% fetal calf serum, 1×Pen/Strep and 1×L-Glutamine (Gibco). […] Luciferase activity was determined as percent of wild type FoxM1B activity following normalization to Renilla activity. Experiments were performed at least four times in triplicate and mean±SD determined. […]

GFP-FoxM1B = experiment: Nuclear localization of transfected GFP-FoxM1B in U2OS cells; format: cell-based, human; conditions: 1 μM
From the text: FIGS. 7A-H show nuclear localization of GFP-FoxM1B fusion protein following treatment with either pharmacological kinase inhibitors or dominant negative kinases. U20S cells were transiently transfected with CMV GFP-FoxM1B with the indicated pharmacological kinase inhibitors (B-D) or dominant-negative kinase expression vectors (E-H). Cells in panel (A) were untreated.
U2OS cells were transiently transfected in 2 well chamber slides (Nunc) with CMV GFP-FoxM1B expression constructs in the presence or absence of either CMV WT T7-p19^ARF, CMV HA-p19^ARF, or CMV expression constructs containing either N-terminal mutant T7-p19^ARF proteins (Δ1-14, Δ15-25, or Δ26-37) or V5-TAT-p19^ARF proteins (26-44; SEQ ID NO: 11, or 26-55; SEQ ID NO: 12). U2OS cells were transiently transfected with CMV EGFP expression vector containing the TAT-p19^ARF proteins (26-44; SEQ ID NO: 11, or 26-55; SEQ ID NO: 12). Forty-eight hours post transfection, cells were fixed in 4% Para-formaldehyde for 20 minutes at room temperature. GFP fluorescence or immuno-fluorescence with anti-HA antibody following TRITC conjugated secondary antibody was detected using a Zeiss microscope. U2OS cells were treated with 12 μM of the rrrrrrrrrKFVRSRRPRTASCALAFVN (SEQ ID NO: 10) peptide for 24 hours and then analyzed for TRITC fluorescence as described above.

rrrrrrrrrSCALAFVN (SCALAFVN-NH2; not fully specified (N-terminus); printed as rrrrrrrrrSCALAFVN; UniProt Q64364 37-44, looked up, fragment) [mutant ARF peptide, reference compound]
Kidney tumor mass at sacrifice [1]: large tumor masses were found in the kidney | Luciferase signal from colonized lymphoma cells ([1]; around 20 days after inoculation): displayed strong luciferase signals

rrrrrrrrrKFVRSRRPRTASCALAFVN (not fully specified (N-terminus, C-terminus); printed as rrrrrrrrrKFVRSRRPRTASCALAFVN; UniProt Q64364 26-44, looked up, fragment) [WT Unblocked]
% of TUNEL Positive S2 Cells, Mean (S2 cells; Experiment 1, 10 μM/Well): 2.46% | % of TUNEL Positive S2 Cells, Mean (S2 cells; Experiment 1, 25 μM/Well): 1.27% | % of TUNEL Positive S2 Cells, Mean (S2 cells; Experiment 1, 30 μM/Well): 5.59% | % of TUNEL Positive S2 Cells, Mean (S2 cells; Experiment 1, 40 μM/Well): 19.94% | % of TUNEL Positive S2 Cells, Mean (S2 cells; Experiment 2, 10 μM/Well): 6.79% | % of TUNEL Positive S2 Cells, Mean (S2 cells; Experiment 2, 15 μM/Well): 7.56% | % of TUNEL Positive S2 Cells, Mean (S2 cells; Experiment 2, 25 μM/Well): 11.19% | % of TUNEL Positive S2 Cells, Mean (S2 cells; Experiment 2, 40 μM/Well): 20.51% | % of TUNEL Positive S2 Cells, Mean (S2 cells; Experiment 2, 70 μM/Well): 30.34% | Apoptosis induction compared between peptides (TUNEL) (S2 cells; S2 cells, 10-70 μM): showed some activity compared to the mutant-blocked peptide at doses higher than 30 μM

rrrrrrrrrKFVRSRRPRTASCALAFVN ([dR][dR][dR][dR][dR][dR][dR][dR][dR]KFVRSRRPRTASCALAFVN; not fully specified (N-terminus, C-terminus); printed as rrrrrrrrrKFVRSRRPRTASCALAFVN; also: end groups differ between preparations (TRITC N-term/acetyl C-term vs Ac N-term/amide C-term); listed as Mus musculus) [(D-Arg)9-p19^ARF 26-44 peptide, p19ARF 26-44 peptide containing nine D-Arg residues at the N-terminus]
FoxM1B induced colony formation on soft agar [2]: significantly diminished the ability of induced GFP-FoxM1B to stimulate colony formation | Colony formation on soft agar (parental U2OS cells): significantly diminished the ability of the parental U2OS cells to form colonies on soft agar | HCC tumor size / progression (HCC; mouse HCC (DEN/PB induced)): effective in diminishing tumor size in HCC | Metastasis of HCC cells (HCC; mouse HCC cells): effectively prevented pulmonary metastasis of HCC cells | Effect on FoxM1B transcriptional activity [3]: significant reduction in FoxM1B transcriptional activity

O=C1Cc2c([nH]c3ccc([N+](=O)[O-])cc23)-c2ccccc2N1 [Alsterpaullone]
Nuclear localization of transfected CMV GFP-FoxM1B protein (GFP-FoxM1B): Neither DN-Cdk1 nor Alsterpaullone (1 μM) altered nuclear localization
